Measurements as given in PubChem BioAssay AID330 (DTP/NCI, 2004).
“And” between values parts separate entries of the source, which are not always exact repeats. Identical values can stand only once. Inconclusive results and toxic doses are left out.

System: P388 leukemia ip, CD2F1 mice, survival T/C
Assay: NCI In Vivo Anticancer Drug Screen. Data for tumor model P388 Leukemia (intraperitoneal) in CD2F1 (CDF1) mice
Settings: endpoint: median survival time, higher = longer survival
Procedure, shortened: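 Mice carrying the transplanted tumor received test compound or vehicle. Survival was recorded in each group, and the value is the treated-group measurement divided by that of the vehicle-treated control group.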

[1] = dose: 12.5 mg/kg/injection, schedule: Q01DX005 (ip), vehicle: saline with Tween-80
[2] = dose: 50.0 mg/kg/injection, schedule: Q01DX009 (ip), vehicle: saline
[3] = dose: 100.0 mg/kg/injection, schedule: Q01DX009 (ip), vehicle: saline
[4] = dose: 60.0 mg/kg/injection, schedule: Q01DX005 (ip), vehicle: saline with Tween-80
[5] = dose: 120.0 mg/kg/injection, schedule: Q01DX005 (ip), vehicle: saline with Tween-80

For `CC1CC(C(=O)c2ccoc2)C(=O)O1` (stereo not given), the T/C [1] was 92 % of control, the T/C (dose: 25.0 mg/kg/injection, schedule: Q01DX005 (ip), vehicle: saline with Tween-80) was 97 % of control and the T/C (dose: 50.0 mg/kg/injection, schedule: Q01DX005 (ip), vehicle: saline with Tween-80) was 101 % of control and 91 % of control.

For `COc1cc2c(cc1C(C)c1ccc(OCc3ccccc3)cc1)OCO2` (stereo not given), the T/C (dose: 25.0 mg/kg/injection, schedule: Q01DX005 (ip), vehicle: distilled water + Tween-80) was 99 % of control, the T/C (dose: 50.0 mg/kg/injection, schedule: Q01DX005 (ip), vehicle: distilled water + Tween-80) was 98 % of control and the T/C (dose: 100.0 mg/kg/injection, schedule: Q01DX005 (ip), vehicle: distilled water + Tween-80) was 90 % of control and 94 % of control. For the same molecule, the T/C (dose: 200.0 mg/kg/injection, schedule: Q01DX005 (ip), vehicle: distilled water + Tween-80) was 90 % of control and 91 % of control.

With `CC(C)OP(=O)(NNP(=O)(OC(C)C)OC(C)C)OC(C)C` the T/C [2] was 104 % of control, the T/C [3] was 105 % of control and the T/C (dose: 200.0 mg/kg/injection, schedule: Q01DX009 (ip), vehicle: saline) was 114 % of control.

With `CC(C)Oc1ccc2c(c1)Sc1ccc(Cl)cc1N2` the T/C (dose: 100.0 mg/kg/injection, schedule: Q04DX003 (ip), vehicle: saline with Tween-80) was 100 % of control, the T/C (dose: 200.0 mg/kg/injection, schedule: Q04DX003 (ip), vehicle: saline with Tween-80) was 100 % of control and the T/C (dose: 400.0 mg/kg/injection, schedule: Q04DX003 (ip), vehicle: saline with Tween-80) was 100 % of control.

In the case of `O=C(O)C1OC1C(=O)O` (stereo not given), the T/C (dose: 75.0 mg/kg/injection, schedule: Q04DX003 (ip), vehicle: saline) is reported as 100 % of control, the T/C (dose: 150.0 mg/kg/injection, schedule: Q04DX003 (ip), vehicle: saline) is reported as 100 % of control and the T/C (dose: 300.0 mg/kg/injection, schedule: Q04DX003 (ip), vehicle: saline) is reported as 100 % of control.

`Clc1ccc2ccc3cccnc3c2n1` was tested, and the T/C (dose: 7.5 mg/kg/injection, schedule: Q01DX005 (ip), vehicle: saline) was 102 % of control, the T/C (dose: 15.0 mg/kg/injection, schedule: Q01DX005 (ip), vehicle: saline) was 97 % of control and the T/C (dose: 30.0 mg/kg/injection, schedule: Q01DX005 (ip), vehicle: saline) was 93 % of control. The T/C (dose: 60.0 mg/kg/injection, schedule: Q01DX005 (ip), vehicle: saline) was 102 % of control and the T/C (dose: 120.0 mg/kg/injection, schedule: Q01DX005 (ip), vehicle: saline) was 105 % of control.

For `COc1cc(C(Nc2ncccn2)c2cc3c(cc2O)OCO3)cc(OC)c1OC` (stereo not given), the T/C [4] was 100 % of control, the T/C [5] was 92 % of control and the T/C (dose: 240.0 mg/kg/injection, schedule: Q01DX005 (ip), vehicle: saline with Tween-80) was 90 % of control.

With `CCc1nc2c(Br)c3oc(CC)nc3c(Br)c2o1` the T/C (dose: 60.0 mg/kg/injection, schedule: Q01DX005 (ip), vehicle: Klucel (hydroxypropylcellulose) (HPC)) was 103 % of control, the T/C (dose: 120.0 mg/kg/injection, schedule: Q01DX005 (ip), vehicle: Klucel (hydroxypropylcellulose) (HPC)) was 100 % of control and the T/C (dose: 240.0 mg/kg/injection, schedule: Q01DX005 (ip), vehicle: Klucel (hydroxypropylcellulose) (HPC)) was 90 % of control.

`CCN(CC)CCCNC(C)=O` was tested, and the T/C (dose: 100.0 mg/kg/injection, schedule: Q04DX003 (ip), vehicle: saline) was 100 % of control, the T/C (dose: 200.0 mg/kg/injection, schedule: Q04DX003 (ip), vehicle: saline) was 91 % of control and the T/C (dose: 400.0 mg/kg/injection, schedule: Q04DX003 (ip), vehicle: saline) was 95 % of control.

For `C=C(NC(=O)C(=C)NC(=O)c1csc(C2=NC3c4csc(n4)C4NC(=O)c5csc(n5)C(C(C)(O)C(C)O)NC(=O)C5CSC(=N5)/C(=C/C)NC(=O)C(C(C)O)NC(=O)c5csc(n5)C3(CC2)NC(=O)C(C)NC(=O)C(=C)NC(=O)C(=C)NC(=O)C(C(C)C)NC2C=Cc3c(C(C)O)cc(nc3C2O)C(=O)OC4C)n1)C(N)=O` (stereo not given), the T/C [2] was 150 % of control.

In the case of `COC1=C(C)C2CC(OC)OC3CC4CCCCC4(C)C(C1=O)C32C` (stereo not given), the T/C (dose: 25.0 mg/kg/injection, schedule: Q01DX005 (ip), vehicle: Klucel (hydroxypropylcellulose) (HPC)) is reported as 105 % of control, the T/C (dose: 50.0 mg/kg/injection, schedule: Q01DX005 (ip), vehicle: Klucel (hydroxypropylcellulose) (HPC)) is reported as 99 % of control and the T/C (dose: 100.0 mg/kg/injection, schedule: Q01DX005 (ip), vehicle: Klucel (hydroxypropylcellulose) (HPC)) is reported as 92 % of control.

In the case of `COc1ccc(OC)c(/C=C2/C(=O)ON=C2C)c1`, the T/C [4] is reported as 114 % of control and the T/C [5] is reported as 111 % of control.

With `Oc1ccc2c(c1)[C@]13CCCCC1[C@H](C2)N(Cc1ccoc1)CC3` (stereo not given in full) the T/C (dose: 25.0 mg/kg/injection, schedule: Q01DX009 (ip), vehicle: saline) was 97 % of control, the T/C [2] was 99 % of control and 103 % of control and the T/C [3] was 99 % of control.

`O=C(ON1C(=O)CCC1=O)C1CCC(CN2C(=O)C=CC2=O)CC1` (stereo not given) was tested, and the T/C (dose: 100.0 mg/kg/injection, schedule: Q04DX002 (ip), vehicle: saline with Tween-80) was 120 % of control.

For `N#CC1OC1c1cccc[n+]1[O-]` (stereo not given), the T/C (dose: 6.25 mg/kg/injection, schedule: Q01DX005 (ip), vehicle: saline with Tween-80) was 98 % of control, the T/C (dose: 6.25 mg/kg/injection, schedule: Q01DX005 (ip), vehicle: saline) was 104 % of control and the T/C [1] was 98 % of control. For the same molecule, the T/C (dose: 12.5 mg/kg/injection, schedule: Q01DX005 (ip), vehicle: saline) was 96 % of control and the T/C (dose: 25.0 mg/kg/injection, schedule: Q01DX005 (ip), vehicle: saline) was 102 % of control.
